Data reported in patent US20080214808A1, “Preparation of Aseptic 3-[2-[4-((6-Fluoro-1,2-Benzisoxazol-3-Yl)-1-Piperidinyl]-6,7,8,9-Tetrahydro-9-Hydroxy-2-Methyl-4H-Pyrido[1,2-a]Pyrimidin-4-One Palmitate Ester” (priority 2005, published 2008).

Experiment: Gamma irradiation of compound (I) in different containers, amounts of (I) and breakdown products by HPLC
Assay type: physicochemical
Source text: During pharmaceutical development, aseptic formulations of paliperidone palmitate (I) were initially obtained by gamma irradiation.
Compound (I) was irradiated with various doses of gamma rays in different containers.

[1] = Glass container, gamma dose 5 kGY
[2] = Glass container, gamma dose 10 kGY
[3] = Glass container, gamma dose 15 kGY
[4] = Glass container, gamma dose 20 kGY
[5] = Glass container, gamma dose 25 kGY
[6] = Glass container, gamma dose 30 kGY
[7] = Glass/metal container, gamma dose 5 kGY
[8] = Glass/metal container, gamma dose 10 kGY
[9] = Glass/metal container, gamma dose 15 kGY
[10] = Glass/metal container, gamma dose 20 kGY
[11] = Glass/metal container, gamma dose 25 kGY
[12] = Glass/metal container, gamma dose 30 kGY
[13] = Plastic container, gamma dose 15 kGY
[14] = Plastic container, gamma dose 20 kGY
[15] = Plastic container, gamma dose 25 kGY
[16] = gamma irradiation, maximum found

With `CCCCCCCCCCCCCCCC(=O)OC1CCCn2c1nc(C)c(CCN1CCC(c3noc4cc(F)ccc34)CC1)c2=O` (centres unmarked) [(I), 3-[2-[4-(6-fluoro-1,2-benzisoxazol-3-yl)-1-piperidinyl]ethyl]-6,7,8,9-tetrahydro-9-hydroxy-2-methyl-4H-pyrido[1,2-a]pyrimidin-4-one palmitate ester] the amount of (I) [1] was 98.8%, the amount of breakdown product (III) [1] was 0.08% and the amount of breakdown products (II) [sum of (II-a) and (II-b)] [1] was 0.02%. The amount of (I) [2] was 98.7%, the amount of breakdown product (III) [2] was 0.15% and the amount of breakdown products (II) [sum of (II-a) and (II-b)] [2] was 0.05%. For the same compound, the amount of (I) [3] was 98.5%, the amount of breakdown product (III) [3] was 0.23% and the amount of breakdown products (II) [sum of (II-a) and (II-b)] [3] was 0.11%. It also gave an amount of (I) [4] of 98.3%, an amount of breakdown product (III) [4] of 0.34% and an amount of breakdown products (II) [sum of (II-a) and (II-b)] [4] of 0.17%. It also gave an amount of (I) [5] of 98.2%, an amount of breakdown product (III) [5] of 0.36% and an amount of breakdown products (II) [sum of (II-a) and (II-b)] [5] of 0.18%. The amount of (I) [6] was 98%, the amount of breakdown product (III) [6] was 0.46% and the amount of breakdown products (II) [sum of (II-a) and (II-b)] [6] was 0.24%. It also gave an amount of (I) [7] of 98.8%, an amount of breakdown product (III) [7] of 0.08% and an amount of breakdown products (II) [sum of (II-a) and (II-b)] [7] of 0.02%. For the same compound, the amount of (I) [8] was 98.9%, the amount of breakdown product (III) [8] was 0.1% and the amount of (I) [9] was 98.5%. It also gave an amount of breakdown product (III) [9] of 0.23%, an amount of breakdown products (II) [sum of (II-a) and (II-b)] [9] of 0.11% and an amount of (I) [10] of 98.4%. It also gave an amount of breakdown product (III) [10] of 0.29%, an amount of breakdown products (II) [sum of (II-a) and (II-b)] [10] of 0.15% and an amount of (I) [11] of 97.2%. It also gave an amount of breakdown product (III) [11] of 0.35%, an amount of breakdown products (II) [sum of (II-a) and (II-b)] [11] of 0.05% and an amount of (I) [12] of 98.2%. It also gave an amount of breakdown product (III) [12] of 0.45%, an amount of breakdown products (II) [sum of (II-a) and (II-b)] [12] of 0.21% and an amount of (I) [13] of 98.3%. For the same compound, the amount of breakdown product (III) [13] was 0.23%, the amount of breakdown products (II) [sum of (II-a) and (II-b)] [13] was 0.03% and the amount of (I) [14] was 97.9%. For the same compound, the amount of breakdown product (III) [14] was 0.29%, the amount of breakdown products (II) [sum of (II-a) and (II-b)] [14] was 0.03% and the amount of (I) [15] was 97.2%. The amount of breakdown product (III) [15] was 0.35%, the amount of breakdown products (II) [sum of (II-a) and (II-b)] [15] was 0.06% and the “breakdown product (III) formed” value [16] was “up to 0.46%”. The “breakdown products (II) [(II-a) and (II-b), co-eluting in HPLC] formed” value [16] was “up to 0.24%” and the “amount of the breakdown products (II) and (III) versus gamma dose” value (various doses of gamma rays, different containers) was “increased dose-dependently”.
